The record followed here is US20130303509A1, “NAMPT INHIBITORS” (AbbVie Inc., priority 2012, published 2013).

The IC50 is the concentration that inhibits the measured activity by half. High values mean weaker potency in that assay, low ones greater potency in that assay.

The test system of this assay is PC3 cells. Put plainly: NAMPT Cell Proliferation Assay. Type of assay: cell-based. As to conditions: Homo sapiens, PC-3, 120 h, 5 days incubation, cell viability by Cell Titer Glo. The protocol:
NAMPT Cell Proliferation Assay
PC3 cells were seeded in 96-well black plates (Corning #3904) at 500 cells)Owell in 90 µl of RPMI media containing 10% heat-inactivated FBS and incubated overnight at 37° C. and 5% CO2 to allow cells to attach to wells. The following day, test compounds were serially diluted in neat DMSO to 1000× final concentrations prior to dilution with RPMI media to 10× and 1% DMSO. […] of the 10× compounds were then transferred to wells containing cells to produce a dose response of 10-fold dilutions from […] to 1×10^−[…]. Cells were incubated for 5 days at 37° C. and 5% CO2, then cell viability was measured using Cell Titer Glo reagent (Promega #G7571). Percent inhibition values were calculated and fitted to a sigmoidal dose response curves using Assay Explorer software to determine IC50s.
A general note: ATP-based viability assays read luminescence as a measure of living cells.
As to `CC(C)(O)C(=O)N1CCC(Oc2ccc(C(=O)NC3CN(c4cccnc4)C3)cc2)CC1` [Example 24, 4-{[1-(2-hydroxy-2-methylpropanoyl)piperidin-4-yl]oxy}-N-[1-(pyridin-3-yl)azetidin-3-yl]benzamide], inhibition was half-maximal at 169 nM (IC50).
As for `O=C(N[C@H]1CCN(c2cccnn2)C1)c1ccc(C2CCN(C(=O)c3ccc(F)cc3F)CC2)s1` [Example 761, 5-[1-(2,4-difluorobenzoyl)piperidin-4-yl]-N-[(3S)-1-(pyridazin-3-yl)pyrrolidin-3-yl]thiophene-2-carboxamide], the concentration for half-maximal inhibition (IC50) was 92.3 nM.
The same measure for `CC(C)C(=O)N1CCC(c2ccc(NC(=O)[C@H]3CCN(c4cccnn4)C3)cc2)CC1` [Example 310, (3S)—N-{4-[1-(2-methylpropanoyl)piperidin-4-yl]phenyl}-1-(pyridazin-3-yl)pyrrolidine-3-carboxamide]: 16.1 nM.
As to `O=C(Nc1ccc(C2(O)CCN(C(=O)OCc3ccccc3)CC2)cc1)C1CN(c2ccc(Cl)nn2)C1` [Example 854, benzyl 4-[4-({[1-(6-chloropyridazin-3-yl)azetidin-3-yl]carbonyl}amino)phenyl]-4-hydroxypiperidine-1-carboxylate], the IC50 is more than 10000 nM.
The molecule `O=C(Nc1ccc(O[C@@H]2CCN(C(=O)c3ccc(Cl)cc3)C2)cc1)C1CN(c2cccnn2)C1` [Example 507, N-(4-{[(3R)-1-(4-chlorobenzoyl)pyrrolidin-3-yl]oxy}phenyl)-1-(pyridazin-3-yl)azetidine-3-carboxamide] yielded an IC50 of 8.34 nM.
The same measure for `O=C(Nc1ccc(C2CCN(C(=O)c3cccc(Cl)c3)CC2)cc1)C1CN(c2cccnn2)C1` [Example 351, N-{4-[1-(3-chlorobenzoyl)piperidin-4-yl]phenyl}-1-(pyridazin-3-yl)azetidine-3-carboxamide]: 2.36 nM.
On to `Cc1ccc(C)c(C(=O)N2CCC(c3ccc(NC(=O)C4CN(c5cccnn5)C4)cc3)CC2)c1` [Example 359, N-{4-[1-(2,5-dimethylbenzoyl)piperidin-4-yl]phenyl}-1-(pyridazin-3-yl)azetidine-3-carboxamide], for which the 50% inhibitory concentration (IC50) was 1.77 nM.
`O=C(Nc1ccc(OC2CCN(C(=O)c3cccc(OC(F)(F)F)c3)CC2)cc1)C1CN(c2ccnnc2)C1` [Example 292, 1-(pyridazin-4-yl)-N-[4-({1-[3-(trifluoromethoxy)benzoyl]piperidin-4-yl}oxy)phenyl]azetidine-3-carboxamide] came in with an IC50 of 93.4 nM.
For the molecule `O=C(Nc1ccc(S(=O)(=O)C2CCN(C(=O)c3cccc(F)c3F)CC2)cc1)C1CN(c2cccnn2)C1` [Example 589, N-(4-{[1-(2,3-difluorobenzoyl)piperidin-4-yl]sulfonyl}phenyl)-1-(pyridazin-3-yl)azetidine-3-carboxamide], it took 97.9 nM to reach half-maximal inhibition (IC50).
`O=C(Nc1ccc(O[C@@H]2CCN(C(=O)c3ccc(C(F)(F)F)cc3)C2)cc1)C1CN(c2ccnnc2)C1` [Example 475, 1-(pyridazin-4-yl)-N-[4-({(3R)-1-[4-(trifluoromethyl)benzoyl]pyrrolidin-3-yl}oxy)phenyl]azetidine-3-carboxamide]: the IC50 came to 594 nM.
For the molecule `CCC(=O)N1CCC(Oc2ccc(NC(=O)C3CN(c4cccnc4)C3)cc2)CC1` [Example 65, N-{4-[(1-propanoylpiperidin-4-yl)oxy]phenyl}-1-(pyridin-3-yl)azetidine-3-carboxamide], the IC50 was found to be 6.38 nM.
Regarding `O=C(Nc1ccc(C2CCN(C(=O)c3ccccc3O)CC2)cc1)C1CN(c2cccnn2)C1` [Example 342, N-{4-[1-(2-hydroxybenzoyl)piperidin-4-yl]phenyl}-1-(pyridazin-3-yl)azetidine-3-carboxamide], the IC50 came to 2.3 nM.
The value for `CC(C)CC(=O)N1CCC(c2ccc(NC(=O)[C@H]3CCN(c4cccnn4)C3)cc2)CC1` [Example 736, (3S)-N-{4-[1-(3-methylbutanoyl)piperidin-4-yl]phenyl}-1-(pyridazin-3-yl)pyrrolidine-3-carboxamide] was 8.09 nM; that for `CCCC(=O)N1CCC(c2ccc(NC(=O)C3CN(c4cccnn4)C3)cc2)CC1` [Example 317, N-[4-(1-butanoylpiperidin-4-yl)phenyl]-1-(pyridazin-3-yl)azetidine-3-carboxamide] was 1.83 nM; that for `CCC(C)(C)C(=O)N1CC[C@@H](Oc2ccc(NC(=O)C3CN(c4cccnn4)C3)cc2)C1` [Example 515, N-(4-{[(3R)-1-(2,2-dimethylbutanoyl)pyrrolidin-3-yl]oxy}phenyl)-1-(pyridazin-3-yl)azetidine-3-carboxamide] was 0.85 nM.
With `COCCOCC(=O)N1CCC(c2ccc(NC(=O)C3CN(c4cccnc4)C3)cc2)CC1` [Example 123, N-(4-{1-[(2-methoxyethoxy)acetyl]piperidin-4-yl}phenyl)-1-(pyridin-3-yl)azetidine-3-carboxamide], the IC50 is 1.03 nM.
The same measure for `O=C(Nc1ccc(S(=O)(=O)C2CCN(C(=O)C3CCCCC3)CC2)cc1)C1CN(c2cccnn2)C1` [Example 568, N-(4-{[1-(cyclohexylcarbonyl)piperidin-4-yl]sulfonyl}phenyl)-1-(pyridazin-3-yl)azetidine-3-carboxamide]: 48.2 nM; for `O=C(Nc1ccc(OC2CCN(C(=O)CC(F)(F)F)CC2)cc1)C1CN(c2cccnc2)C1` [Example 55, 1-(pyridin-3-yl)-N-(4-{[1-(3,3,3-trifluoropropanoyl)piperidin-4-yl]oxy}phenyl)azetidine-3-carboxamide]: 21.1 nM; for `CC(C)C(=O)N1CCC(S(=O)(=O)c2ccc(NC(=O)C3CN(c4ccnnc4)C3)cc2)CC1` [Example 614, N-(4-{[1-(2-methylpropanoyl)piperidin-4-yl]sulfonyl}phenyl)-1-(pyridazin-4-yl)azetidine-3-carboxamide]: 7660 nM.
For `CC(C)(C)C(=O)N1CCC(c2ccc(C(=O)NC3CN(c4cccnn4)C3)s2)CC1` [Example 847, 5-[1-(2,2-dimethylpropanoyl)piperidin-4-yl]-N-[1-(pyridazin-3-yl)azetidin-3-yl]thiophene-2-carboxamide], the IC50 amounted to 115 nM.
`O=C(Nc1ccc(C2CCN(C(=O)c3cccc(C(F)(F)F)c3)CC2)cc1)[C@H]1CCN(c2cccnn2)C1` [Example 711, (3S)-1-(pyridazin-3-yl)-N-(4-{1-[3-(trifluoromethyl)benzoyl]piperidin-4-yl}phenyl)pyrrolidine-3-carboxamide]: the IC50 stood at 59.5 nM.
In turn, `O=C(Nc1ccc(C2CCN(C(=O)Cc3cc(F)ccc3F)CC2)cc1)C1CN(c2cccnn2)C1` [Example 373, N-(4-{1-[(2,5-difluorophenyl)acetyl]piperidin-4-yl}phenyl)-1-(pyridazin-3-yl)azetidine-3-carboxamide] yielded an IC50 of 5.95 nM.
Regarding `O=C(Nc1ccc(C2CCN(C(=O)C3CC3)CC2)cc1)C1CN(c2ccnnc2)C1` [Example 541, N-{4-[1-(cyclopropylcarbonyl)piperidin-4-yl]phenyl}-1-(pyridazin-4-yl)azetidine-3-carboxamide], the IC50 was 4.2 nM.
`CC(C)(C)C(=O)N1CCC(c2ccc(NC(=O)C3CN(c4cccnn4)C3)c(F)c2)CC1` [Example 859, N-{4-[1-(2,2-dimethylpropanoyl)piperidin-4-yl]-2-fluorophenyl}-1-(pyridazin-3-yl)azetidine-3-carboxamide] had an IC50 of 2.7 nM.
Take `CCC(=O)N1CCC(c2ccc(NC(=O)[C@H]3CCN(c4cccnn4)C3)cc2)CC1` [Example 658, (3S)-N-[4-(1-propanoylpiperidin-4-yl)phenyl]-1-(pyridazin-3-yl)pyrrolidine-3-carboxamide]: inhibition was half-maximal at 14.4 nM (IC50).
In turn, `O=C(Nc1ccc(C2CCN(C(=O)Cc3cccc4ccccc34)CC2)cc1)C1CN(c2cccnn2)C1` [Example 410, N-{4-[1-(naphthalen-1-ylacetyl)piperidin-4-yl]phenyl}-1-(pyridazin-3-yl)azetidine-3-carboxamide] registered an IC50 of 8.68 nM.
As for `CC(C)CC(=O)N1CCC(Oc2ccc(NC(=O)C3CN(c4ccnnc4)C3)cc2)CC1` [Example 266, N-(4-{[1-(3-methylbutanoyl)piperidin-4-yl]oxy}phenyl)-1-(pyridazin-4-yl)azetidine-3-carboxamide], half-maximal inhibition (IC50) was put at 83 nM.
Regarding `Cc1ccc(C(=O)N2CCC(c3ccc(NC(=O)C4CN(c5cccnn5)C4)cc3)CC2)cc1` [Example 441, N-{4-[1-(4-methylbenzoyl)piperidin-4-yl]phenyl}-1-(pyridazin-3-yl)azetidine-3-carboxamide], it took 6.83 nM to reach half-maximal inhibition (IC50).
The value for `O=C(Nc1ccc(O[C@@H]2CCN(C(=O)C3CC3)C2)cc1)C1CN(c2ccnnc2)C1` [Example 460, N-(4-{[(3R)-1-(cyclopropylcarbonyl)pyrrolidin-3-yl]oxy}phenyl)-1-(pyridazin-4-yl)azetidine-3-carboxamide] was 223 nM.
Molecule `Cc1cc(C)cc(C(=O)N2CCC(c3ccc(NC(=O)C4CN(c5cccnn5)C4)cc3)CC2)c1` [Example 361, N-{4-[1-(3,5-dimethylbenzoyl)piperidin-4-yl]phenyl}-1-(pyridazin-3-yl)azetidine-3-carboxamide] yielded an IC50 of 2.77 nM.
`O=C(Nc1ccc(C2CCN(C(=O)c3cccs3)CC2)cc1)[C@H]1CCN(c2cccnn2)C1` [Example 731, (3S)-1-(pyridazin-3-yl)-N-{4-[1-(thiophen-2-ylcarbonyl)piperidin-4-yl]phenyl}pyrrolidine-3-carboxamide] registered a half-inhibitory concentration (IC50) of 0.5 nM.
In turn, `Cc1ncccc1N1CC(C(=O)Nc2ccc(C3CCN(C(=O)CN4CCN(C)CC4)CC3)cc2)C1` [Example 173, N-(4-{1-[(4-methylpiperazin-1-yl)acetyl]piperidin-4-yl}phenyl)-1-(2-methylpyridin-3-yl)azetidine-3-carboxamide] registered an IC50 of 627 nM.
